Measurements as given in PubChem BioAssay AID292 (DTP/NCI, 2004).
Where “and” joins values, the source holds several entries; their conditions need not be identical. Equal entries are not always repeated. Inconclusive results and toxic doses are left out. How the source made its calls: active means survival T/C of 150% or more; inactive means T/C below 125% in these data.

Tested on: B6C3F1 mice, ip Sarcoma M5076, median survival T/C
Experiment: NCI In Vivo Anticancer Drug Screen. Data for tumor model Sarcoma M5076 (intraperitoneal) in B6C3F1 mice
Conditions: endpoint: median survival time, schedule: Q04DX004 (ip), higher = longer survival
In short: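 Tumour cells were transplanted into mice, compound or vehicle was given, survival of both groups was followed, and the treated figure was expressed over the control figure.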

[1] = dose: 25.0 mg/kg/injection, vehicle: saline
[2] = dose: 50.0 mg/kg/injection, vehicle: saline
[3] = dose: 100.0 mg/kg/injection, vehicle: saline
[4] = dose: 200.0 mg/kg/injection, vehicle: saline
[5] = dose: 25.0 mg/kg/injection, vehicle: saline with Tween-80
[6] = dose: 50.0 mg/kg/injection, vehicle: saline with Tween-80
[7] = dose: 100.0 mg/kg/injection, vehicle: saline with Tween-80
[8] = dose: 200.0 mg/kg/injection, vehicle: saline with Tween-80

Measured: T/C

Nc1ncc(C2OC(CO)C(O)C2O)c(=O)[nH]1 (centres undefined)
inactive: [1] 106 % of control | [2] 104 % of control | [3] 103 % of control | [4] 96 % of control | dose: 400.0 mg/kg/injection, vehicle: saline 100 % of control

CC(=O)NO
inactive: dose: 100.0 mg/kg/injection, vehicle: water 97 % of control and 100 % of control and 105 % of control | dose: 200.0 mg/kg/injection, vehicle: water 101 % of control and 103 % of control and 104 % of control | dose: 400.0 mg/kg/injection, vehicle: water 107 % of control and 109 % of control | dose: 800.0 mg/kg/injection, vehicle: water 106 % of control and 108 % of control | dose: 1600.0 mg/kg/injection, vehicle: water 113 % of control and 115 % of control

CC1(C)C2CCC(C2)C1/C=C1/SC(=S)NC1=O (centres undefined)
inactive: dose: 25.0 mg/kg/injection, vehicle: Klucel (hydroxypropylcellulose) (HPC) 95 % of control | dose: 50.0 mg/kg/injection, vehicle: Klucel (hydroxypropylcellulose) (HPC) 98 % of control | dose: 100.0 mg/kg/injection, vehicle: Klucel (hydroxypropylcellulose) (HPC) 90 % of control | dose: 200.0 mg/kg/injection, vehicle: Klucel (hydroxypropylcellulose) (HPC) 91 % of control | dose: 400.0 mg/kg/injection, vehicle: Klucel (hydroxypropylcellulose) (HPC) 87 % of control

Cc1nc2c(cnn2C)cc1CCc1ccccc1
inactive: dose: 18.75 mg/kg/injection, vehicle: saline with Tween-80 99 % of control | dose: 37.5 mg/kg/injection, vehicle: saline with Tween-80 101 % of control | dose: 75.0 mg/kg/injection, vehicle: saline with Tween-80 99 % of control | dose: 150.0 mg/kg/injection, vehicle: saline with Tween-80 99 % of control | dose: 300.0 mg/kg/injection, vehicle: saline with Tween-80 90 % of control

C/C(=N\NC(=O)c1ccccc1O)c1cccc(/C(C)=N/NC(=O)c2ccccc2O)n1
inactive: [1] 88 % of control | dose: 25.0 mg/kg/injection, vehicle: suspension in saline 108 % of control | [2] 88 % of control | dose: 100.0 mg/kg/injection, vehicle: suspension in saline 116 % of control

CNNCc1ccc(C(=O)NC(C)C)cc1
active: dose: 88.0 mg/kg/injection, vehicle: saline 152 % of control | dose: 352.0 mg/kg/injection, vehicle: saline 152 % of control
inactive: dose: 22.0 mg/kg/injection, vehicle: saline 119 % of control

CC(=O)OCc1cc(-c2nc3ccccc3[nH]c2=O)nn1-c1ccc(Cl)cc1
inactive: dose: 6.25 mg/kg/injection, vehicle: distilled water + alcohol 95 % of control | dose: 12.5 mg/kg/injection, vehicle: distilled water + alcohol 91 % of control | dose: 25.0 mg/kg/injection, vehicle: distilled water + alcohol 88 % of control and 91 % of control | dose: 200.0 mg/kg/injection, vehicle: distilled water + alcohol 97 % of control

CNC(=O)Oc1ccc(S(=O)(=O)c2ccc(OC(=O)NC)cc2)cc1
inactive: [5] 100 % of control | [6] 96 % of control and 104 % of control | [7] 96 % of control and 97 % of control | [8] 100 % of control and 101 % of control

CC(NNC(=S)N(C)C1CCCCC1)c1cc2ccccc2cn1 (centres undefined)
inactive: [2] 102 % of control | [3] 105 % of control | [4] 111 % of control

COc1ccc(O)cc1
inactive: [5] 102 % of control | [6] 98 % of control | [7] 105 % of control | [8] 113 % of control

O=C1N(Cl)C(=O)C(c2ccc(Cl)cc2)(c2ccc(Cl)cc2)N1Cl
inactive: [5] 102 % of control | [6] 102 % of control | [7] 96 % of control

CC(=O)N1CN=C2Sc3ccccc3N2C1
inactive: dose: 18.75 mg/kg/injection, vehicle: Klucel (hydroxypropylcellulose) (HPC) 102 % of control | dose: 37.5 mg/kg/injection, vehicle: Klucel (hydroxypropylcellulose) (HPC) 111 % of control | dose: 75.0 mg/kg/injection, vehicle: Klucel (hydroxypropylcellulose) (HPC) 103 % of control | dose: 150.0 mg/kg/injection, vehicle: Klucel (hydroxypropylcellulose) (HPC) 102 % of control
